Experimental data reported in US20180250280A1 (BAYER PHARMA AKTIENGESELLSCHAFT, priority 2015, published 2018).

Assays:
human factor XIa = biological target: T1, human factor XIa (Homo sapiens, UniProt P03951); test: Measurement of FXIa inhibition (fluorogenic peptide substrate, AMC cleavage); type: biochemical; conditions: factor XIa from Kordia 0.45 nM; substrate Boc-Glu(OBzl)-Ala-Arg-AMC 10 μM; 30 min at 22° C.; in some cases averages from multiple determinations
T1 construct: purchased Kordia

human plasma kallikrein = biological target: T2, human plasma kallikrein (Homo sapiens, UniProt P03952); test: Determination of the plasma kallikrein activity (fluorogenic peptide substrate, AMC cleavage); type: biochemical; conditions: plasma kallikrein from Kordia 0.6 nM; substrate H-Pro-Phe-Arg-AMC 10 μM; 30 min at 22° C.; in some cases averages from multiple determinations
T2 construct: purchased Kordia
Outline: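 Kallikrein cleavage of H-Pro-Phe-Arg-AMC was followed by AMC fluorescence (ex 360, em 460) after 15 min enzyme–compound preincubation. IC50 was derived versus DMSO controls over final concentrations of 50 μM to 0.00013 μM.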

T1 sequence (P03951 388-625 limits assumed): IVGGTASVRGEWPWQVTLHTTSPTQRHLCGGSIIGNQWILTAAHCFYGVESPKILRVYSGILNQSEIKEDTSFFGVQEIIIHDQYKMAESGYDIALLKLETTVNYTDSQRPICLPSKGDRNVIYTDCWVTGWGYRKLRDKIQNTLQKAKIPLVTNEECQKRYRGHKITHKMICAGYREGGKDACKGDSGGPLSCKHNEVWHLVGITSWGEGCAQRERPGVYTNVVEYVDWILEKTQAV
T1 sequence (P03951 19-387 partner limits assumed): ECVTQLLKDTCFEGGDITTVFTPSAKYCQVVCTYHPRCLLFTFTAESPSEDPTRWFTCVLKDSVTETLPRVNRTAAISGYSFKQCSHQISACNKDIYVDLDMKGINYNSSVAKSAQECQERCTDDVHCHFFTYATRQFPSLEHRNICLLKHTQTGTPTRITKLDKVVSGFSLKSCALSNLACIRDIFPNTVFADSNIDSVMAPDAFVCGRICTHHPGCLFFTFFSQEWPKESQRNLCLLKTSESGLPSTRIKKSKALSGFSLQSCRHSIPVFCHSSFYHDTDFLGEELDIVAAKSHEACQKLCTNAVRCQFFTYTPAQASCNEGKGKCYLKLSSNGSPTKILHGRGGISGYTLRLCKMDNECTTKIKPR
T2 sequence (P03952 391-638 limits assumed): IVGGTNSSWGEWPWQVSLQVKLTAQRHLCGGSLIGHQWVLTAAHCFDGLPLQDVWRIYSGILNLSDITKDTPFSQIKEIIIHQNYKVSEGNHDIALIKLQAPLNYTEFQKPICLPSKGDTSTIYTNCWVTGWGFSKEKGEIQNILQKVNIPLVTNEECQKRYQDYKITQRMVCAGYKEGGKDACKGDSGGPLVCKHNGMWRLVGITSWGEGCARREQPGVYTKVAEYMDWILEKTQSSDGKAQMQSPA
T2 sequence (P03952 20-390 partner limits assumed): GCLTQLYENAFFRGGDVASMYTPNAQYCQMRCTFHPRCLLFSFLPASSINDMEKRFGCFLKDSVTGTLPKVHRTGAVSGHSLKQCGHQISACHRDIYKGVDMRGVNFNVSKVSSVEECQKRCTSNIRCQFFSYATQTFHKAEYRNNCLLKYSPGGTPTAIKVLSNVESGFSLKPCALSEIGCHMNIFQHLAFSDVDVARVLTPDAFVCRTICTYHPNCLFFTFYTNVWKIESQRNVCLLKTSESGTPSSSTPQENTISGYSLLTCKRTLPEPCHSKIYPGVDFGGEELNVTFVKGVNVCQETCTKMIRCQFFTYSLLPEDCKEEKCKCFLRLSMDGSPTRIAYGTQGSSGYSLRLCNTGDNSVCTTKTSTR

| SMILES | IC50 (human factor XIa) [nM] | IC50 (human plasma kallikrein) [nM] |
| --- | --- | --- |
| COc1cn([C@@H](CCOC(C)(C)C)C(=O)Nc2ccc3nc(C(=O)O)cn3c2)c(=O)cc1-c1cc(Cl)ccc1OCC(F)(F)F (single isomer, unassigned) [Example 71, 6-{[4-tert-Butoxy-2-{4-[5-chloro-2-(2,2,2-trifluoroethoxy)phenyl]-5-methoxy-2-oxopyridin-1(2H)-yl}butanoyl]amino}imidazo[1,2-a]pyridine-2-carboxylic acid] | 0.93 | 10 |
| COc1cn(C(C[C@@H]2CCCCO2)C(=O)Nc2ccc(C(=O)O)s2)c(=O)cc1-c1cc(Cl)ccc1OCC(F)(F)F (stereo partly drawn) [Example 72, 5-({2-{4-[5-Chloro-2-(2,2,2-trifluoroethoxy)phenyl]-5-methoxy-2-oxopyridin-1(2H)-yl}-3-[(2S)-tetrahydro-2H-pyran-2-yl]propanoyl}amino)thiophene-2-carboxylic acid] | 1.6 | 24 |
| COc1cn(C(CCOC(C)(C)C)C(=O)Nc2ccc(C(=O)O)cc2)c(=O)cc1-c1cc(Cl)ccc1OCC(F)(F)F (racemic) [Example 7, 4-[(4-tert-Butoxy-2-{4-[5-chloro-2-(2,2,2-trifluoroethoxy)phenyl]-5-methoxy-2-oxopyridin-1(2H)-yl}butanoyl)amino]benzoic acid] | 0.71 | 34 |
| COc1cn([C@@H](CCOC(C)(C)C)C(=O)Nc2ccc(C(=O)O)s2)c(=O)cc1-c1cc(Cl)ccc1OCC(F)(F)F (single isomer, unassigned) [Example 69, 5-{[4-tert-Butoxy-2-{4-[5-chloro-2-(2,2,2-trifluoroethoxy)phenyl]-5-methoxy-2-oxopyridin-1(2H)-yl}butanoyl]amino}thiophene-2-carboxylic acid] | 0.88 | 8.9 |
| COc1cn(C(CCOC(C)(C)C)C(=O)Nc2ccc3nn(C)cc3c2)c(=O)cc1-c1cc(Cl)ccc1OCC(F)F (racemic) [Example 28, 4-tert-Butoxy-2-{4-[5-chloro-2-(2,2-difluoroethoxy)phenyl]-5-methoxy-2-oxopyridin-1(2H)-yl}-N-(2-methyl-2H-indazol-5-yl)butanamide] | 28 | 120 |
| COc1cn(C(C[C@@H]2CCCCO2)C(=O)Nc2ccc(C(=O)O)cc2)c(=O)cc1-c1cc(Cl)ccc1OCC(F)(F)F (single isomer, unassigned) [Example 50] | 0.41 | 19 |

Second part, the compound after the results:

| IC50 (human factor XIa) [nM] | IC50 (human plasma kallikrein) [nM] | SMILES |
| --- | --- | --- |
| 14 | 280 | COc1cn(C(CC2COCCO2)C(=O)Nc2ccc(C(N)=O)nc2)c(=O)cc1-c1cc(Cl)ccc1OCCF (centres unmarked) [Example 45, 5-{[2-{4-[5-Chloro-2-(2-fluoroethoxy)phenyl]-5-methoxy-2-oxopyridin-1(2H)-yl}-3-(1,4-dioxan-2-yl)propanoyl]amino}pyridine-2-carboxamide] |
| 6.5 | 49 | CNC(=O)c1ccc(NC(=O)C(CCOC)n2cc(OC)c(-c3cc(Cl)ccc3OCC(F)(F)F)cc2=O)cn1 (racemic) [Example 4, 5-[(2-{4-[5-Chloro-2-(2,2,2-trifluoroethoxy)phenyl]-5-methoxy-2-oxopyridin-1(2H)-yl}-4-methoxybutanoyl)amino]-N-methylpyridine-2-carboxamide] |
| 3.4 | 38 | CNC(=O)c1ccc(NC(=O)C(CC2COCCO2)n2cc(OC)c(-c3cc(Cl)ccc3OCC(F)(F)F)cc2=O)cn1 (centres unmarked) [Example 19, 5-{[2-{4-[5-Chloro-2-(2,2,2-trifluoroethoxy)phenyl]-5-methoxy-2-oxopyridin-1(2H)-yl}-3-(1,4-dioxan-2-yl)propanoyl]amino}-N-methylpyridine-2-carboxamide] |
| 37 | 250 | CCCC(C(=O)Nc1ccc(C(N)=O)nc1)n1cc(OC)c(-c2cc(Cl)ccc2OCC(F)(F)F)cc1=O (racemic) [Example 68, 5-{[2-{4-[5-Chloro-2-(2,2,2-trifluoroethoxy)phenyl]-5-methoxy-2-oxopyridin-1(2H)-yl}pentanoyl]amino}pyridine-2-carboxamide] |
